Each structure is given as a SMILES string. Read-outs that look alike come from different tables or passages of the source. Bounds are passed on as bounds.

Series [1] deals with Epstein Barr Virus (EBV). Nature of the series: Inhibition of lytic EBV replication in Akata cells, real-time PCR of BALF5. It is filed as cell-based. The settings on record: real-time PCR at 48 hours, NA = Not active. The method, then: Inhibition of lytic Epstein Barr Virus (EBV) replication: Akata cells (0.5×10^6/well of 24-well plate) latently infected with EBV were induced with 100 μg/ml of goat antihuman IgG (Sigma). Compounds and GCV control were added to triplicate wells immediately after the addition of human IgG. Cells were collected 48 hours after lytic induction for DNA quantification. Cellular DNA was purified using Wizard SV Genomic Kit (Promega, Madison, WI). The effect of the compounds on lytic induction of EBV was analyzed by real-time PCR of the EBV DNA polymerase gene, BALF5^38.
Inhibition of other herpesviruses: Inhibition of herpes simplex 1 and 2 (HSV1, HSV2), Epstein Barr virus (EBV) and mouse CMV (MCMV) was tested with the five compounds. Plaque reductions assays were used for HSV1, HSV2 and MCMV. Inhibition of lytic EBV replication was measured by real-time PCR in AKATA cells following IgG induction. Only MLS8554 was active against HSV1, HSV2 and MCMV (Table 2).
(Real-time PCR tracks product formation cycle by cycle.)

Series [2] addresses HCMV Towne (pp28-luciferase). Nature of the series: pp28-luciferase HCMV Towne assay in HFFs, luciferase activity at 72 hpi. It is filed as cell-based, human cytomegalovirus. From the text:
(§1) A GCV-resistant HCMV pp28-luciferase that contains a C607Y mutation in UL97 was reported^37. The HCMV TB40 strain was obtained from ATCC (VR-1578). Clinical isolates of Human Herpesvirus 1 and 2 (HSV1, HSV2) were collected from the Johns Hopkins Microbiology laboratory without identifiers that could link them to a specific patient. Mouse CMV (MCMV) Smith strain (ATCC VR-1399) was used for infection of MEFs.
(§2) Luciferase activity: Cell lysates were collected at 72 hpi and luciferase activity was determined using the Glomax-Multi+Detection System (Promega, Madison, WI) as described previously^20.
(§3) HCMV inhibition was measured by luciferase activity of pp28-recombinant Towne and pp28 GCV-resistant Towne strains of HCMV (72 hpi) and by plaque reduction using HCMV Towne or TB40 (10 days). Viral protein expression was measured by Western blot.

Series [3] has as its system HCMV TB40. Nature of the series: Drug combination with letermovir, plaque assay TB40, Bliss model. As to conditions: read-out: EC50 (μM) of Compound 2. It is filed as cell-based, human cytomegalovirus. As for the experimental part:
(§4) Drug combination and analysis: These experiments were performed as previously reported^40. The combination of GCV and each compound was tested using the pp28-luciferase. Briefly, 2×10^6 HFFs/plate were seeded in 96-well plates and infected with the pp28-luciferase Towne HCMV strain (MOI=1). First, a dose response curve was generated for each drug individually to determine its EC50. Then, drugs were combined at twice their EC50, diluted in DMEM with 4% FBS, followed by serial dilution and added together after infection. Luciferase activity of the combination and each drug individually was quantified at 72 hpi. The combination of letermovir and each of the new compounds was tested by the plaque assay using TB40. The same principle applied in this assay for the drug combination effect, and plaques were counted at 8 dpi. The Bliss model was used to calculate the effect of each drug combination on pp28-luciferase activity and plaque reduction. In this model, drug combination represents the product of two probabilistically independent events as described in the following equation^41.
(§5) [formula] Where D is the drug concentration, m is the slope, and EC50 is the effective concentration resulting in 50% virus inhibition. The combined effect of two inhibitors (Fu, fractional unaffected) is computed as the product of individual effects of the two inhibitors, Fu1 and Fu2. If the ratio of observed fold inhibition divided by the expected fold inhibition is greater than 1, the compounds are synergistic. If the ratio is less than 1, the combination is considered antagonistic, and if it equals to 1 the combination is additive.
Pattern of drug combination with GCV and letermovir: The effect of each compound alone or in combination with GCV or letermovir was tested in HCMV-infected HFFs. […] A ratio of observed fold inhibition divided by the expected fold inhibition of >1 was considered drug synergy, <1 as drug antagonism, and =1 as additive. For letermovir and its combination with each of the five compounds the EC50 was determined based on plaque assay. The combination of GCV and 2955 was also tested by plaque assay. All other combinations and Bliss coefficients were measured by pp28- luciferase.

Series [4] addresses pp28-luciferase Towne HCMV. Nature of the series: Drug combination with GCV, pp28-luciferase Towne, Bliss model. It is filed as cell-based, human cytomegalovirus. As to conditions: combination experiment with GCV, pp28-luciferase; read-out: EC50 (μM) of Compound 2. The method, then: as §4, §5
(§6) Pattern of drug combination with GCV and letermovir: The effect of each compound alone or in combination with GCV or letermovir was tested in HCMV-infected HFFs. […] For letermovir and its combination with each of the five compounds the EC50 was determined based on plaque assay. […] All other combinations and Bliss coefficients were measured by pp28- luciferase.

Series [5] concerns non-infected HFFs. Nature of the series: in vitro. The method, then: (§7) Cytotoxicity assay: MTT assay was performed as described by manufacturer's instructions (Sigma-Aldrich). Non-infected cells were treated with compounds for 72 h or 10 days (same time points of the antiviral assay), and 20 μL/well of MTT [3-(4, 5-Dimethyl-2-thiazolyl)-2, 5-diphenyl-2H-tetrazolium bromide], 5 mg/mL in phosphate buffered saline (PBS)] was added to each well. After shaking at 150 rpm for 5 min the plates were incubated at 37° C. for 2-3 h. Conversion of yellow solution to dark blue formazan by mitochondrial dehydrogenases of living cells was quantified by measuring absorbance at 560 nm.
as §3

Series [6] deals with GCV-resistant HCMV Towne (C607Y mutation in UL97). Nature of the series: microbe, parasite or virus in culture. It is filed as cell-based, human cytomegalovirus.
Source text: as §1, §2, §3

A short description of series [7]: in vitro. The settings on record: human. The method, then: as §7, §3
Series [8] has as its system HCMV. Nature of the series: Drug combination of GCV and 2955 by plaque assay, Bliss model. It is filed as cell-based, human cytomegalovirus. The settings on record: Human betaherpesvirus 5; combination experiment with GCV, plaque assay; read-out: EC50 (μM) of Compound 2. The method, then: as §4, with “In this model, drug combination represents the product of two probabilistically independent events as described in the following equation^41.” left out
as §6

The test system of series [9] is MEFs. Nature of the series: Toxicity to MEFs. It is filed as cell-based, mouse.
Where [10] appears, read: pp28-luciferase Towne, HFFs, 72 hpi, read-out: EC50—Towne.
Setting [11] is: combination experiment with Letermovir.
[12] abbreviates: pp28 GCV-resistant Towne, luciferase, 72 hpi, read-out: EC50—GCVR Towne.
Setting [13] is: Human betaherpesvirus 5, read-out: EC50—Towne (μM).
Setting [14] is: Human betaherpesvirus 5, combination experiment with Letermovir.

The term EC50 denotes the midpoint of the concentration-response curve. For the molecule `Nc1c(S(=O)(=O)c2cccs2)c2nc3ccccc3nc2n1Cc1ccccc1` [MLS8091], the EC50 in series [1] (IgG induction) is more than 10000 nM; in series [2] (setting [10]) it was 0.39 µM; in series [3] (setting [11]), 0.13 ± 0.05 µM; in [4], 0.57 ± 0.07 µM; in series [6] (setting [12]), 0.26 ± 0.02 µM. In addition, the CC50 in series [5] is more than 250000 nM.
As for `CCc1ccc(NC(=O)[C@H](Cc2c[nH]c3ccccc23)NC(=O)[C@@H]2Cc3ccccc3CN2)cc1` [MLS8554], the “anti-HCMV activity, in words” value in series [2] (all the HCMV strains used) is reported as “active”. The EC50 turned out to be 0.64 ± 0.1 µM in series [2] (setting [10]), 0.14 ± 0.02 µM in series [3] (setting [11]), 0.55 ± 0.02 µM in series [4] and 0.17 µM in series [6] (setting [12]). In series [5], this molecule yielded a CC50 of 86000 nM. Further, in [6], the “activity against GCV-resistant HCMV, in words” value is on record as “active”.
Consider `CCN1CCN(CCCNC(=O)c2ccc3c(c2)sc2nc(-c4ccc(OC)cc4)cn23)CC1` [NFU1827, N-[3-(4-ethylpiperazin-1-yl)propyl]-4-(4-methoxyphenyl)-7-thia-2,5-diazatricyclo [6.4.0.02,6] dodeca-1(8),3,5,9,11-pentaene-10-carboxamide], for which the EC50 in series [1] (human gammaherpesvirus 4, IgG induction) turned out to be 1920 ± 100 nM; in [2] (setting [13]) it was 0.85 ± 0.1 µM; in series [3] (setting [14]) it was 0.69 ± 0.07 µM; in series [6] (Human betaherpesvirus 5, read-out: EC50—GCVR Towne (μM)) it was 0.84 ± 0.1 µM. In [7], this molecule gave a CC50 of 70900 nM.
`CC(C)NC(=O)C1CCN(C(=O)c2cc3sccc3n2Cc2ccc(Cl)cc2)CC1` [NCGC2955, 1-(4-(4-chlorobenzyl)-4H-thieno[3,2-b]pyrrole-5-carbonyl)-N-isopropylpiperidine-4-carboxamide]: the values for the EC50 in [8], in series [2] (setting [13]) and in [3] (setting [14]) were 1.51 ± 0.03 µM, 4.61 ± 1.4 µM and 3.19 ± 0.17 µM, respectively. Besides, the “concentration at which toxicity to MEFs was observed” value in series [9] is not below 10 µM. In series [2] (compound after infection, MOI of 1 PFU/cell, 72 hpi), the “inhibition of luciferase activity, in words” value is recorded as “did not show a full dose response”. The same molecule registered a CC50 in series [7] of more than 200000 nM. Further, the “activity against GCV-resistant HCMV, in words” value in series [6] is “inhibited”.

For the origin of these results see patent US12691114B2, “Compositions for inhibition of herpesviruses” (The Medical College of Wisconsin, Inc., priority 2020, dated 2026).
